Test results: patent US20140205586A1, “CONTROL OF BIOFILM FORMATION” (THE REGENTS OF THE UNIVERSITY OF MICHIGAN, priority 2010, published 2014)

Experiments:
Acinetobacter cultures = test: CytoTox-Glo cytotoxicity assay (programmed cell death); type: cell-based; conditions: 24 h post-treatment
Description: Cytotoxicity Assay: Planktonic cells and biofilm cells were collected as described above and washed with PBS buffer three times. Cell concentration was adjusted to 1-1.5×10^8 CFU/ml with PBS buffer and samples were ready for dead-cell protease activity, which had been released from cells that had lost membrane integrity, by using CytoTox-Glo™ Cytotoxicity Assay (Cat. G9291. Promega. Madison, Wis.) following the instructions by the manufacturer.

E. coli = test: Biofilm formation, crystal violet staining in 96-well plates; type: cell-based; conditions: 400 μM dATP
Experimental: (§1) Overnight LB-grown culture was diluted 100 times with 10% LB medium, and 100 μL of the dilution was inoculated into each well of 96-well plates. dATP, dGTP, DNase I, or apyrase was added into wells to result in the desired concentrations. An equivalent volume of 10% LB medium was added into wells as control. Plates were covered with lids and incubated at 30° C. for 16 hours before optical density (OD) was measured at 600 nm for the record of growth. Fifteen microliters of 0.1% crystal violet solution was added into each well for crystal violet staining (CV staining) After 15 min of staining, each well was washed gently three times with 100 μl of PBS buffer. Supernatant in each well was removed and 100 μl of 75% ethanol was added to dissolve crystal violet before measuring optical density at 600 nm (CV OD) for the quantification of biofilm biomass.
(§2) For visualization of biofilm structure (FIG. 2), biofilms were developed as described above. After 16 hours of incubation, supernatant was removed from each well and 100 μl of PBS buffer containing 0.1 mM SYTO-9 green, 10 mM Propidium Iodide (PI) was added for staining in dark for 15 min. Cell images were acquired with a Perkin Elmer UltraView confocal microscope system equipped with an Argon-Krypton laser. Images were taken with an oil immersion 60× objective lens in two channels (488 nm excitation for SYTO9 and 568 nm excitation for PI). […]

Acinetobacter [1] = test: Extracellular DNA (eDNA) extraction and quantification; type: cell-based
Experimental: DNA extraction and quantification: Biofilms were developed as mentioned above for 16 hours and biofilm cells were resuspended with 0.9% NaCl solution, homogenized for 1 min and utilized for eDNA extraction. Planktonic cells were incubated at 30° C. for 8 hours with a 1% of inoculation and cells were washed with fresh 10% of LB broth three times before resuspension in the same volume of 10% of LB broth or 10% LB broth supplemented with 400 μM of dATP. The cells solutions were then incubated at 30° C. for another 2 hour and were ready for eDNA extraction. Biofilm cells suspension and planktonic cultures were treated as previously reported (27) for DNA extraction. Briefly, cell solution was treated with Dispersin B (20 μg/ml) at 37° C. for 30 min followed by treatment of proteinase K (5 μg/ml) for another 30 min at 37° C. Treated cell solution was filtered through a 0.2 μm syringe filter (PES, Water & Process Technologies), elute was used to extract the extracellular DNA by using ethanol precipitation. DNA was dissolved in 50 μl of sterile MilliQ water and the concentration of DNA was measured by using the PicoGreen dsDNA Quantitation Kit (Molecular Probes, Invitrogen).

Acinetobacter biofilms = test: Biofilm biomass, crystal violet staining in 96-well plates; type: cell-based; conditions: 16 hours incubation
Experimental: as §1, §2

Acinetobacter [2] = test: Bacterial initial attachment assay; type: cell-based; conditions: 125 μM dATP; visualized at 2 h, 4 h and 8 h post-treatment
Experimental: Bacterial initial attachment assay: 1% of an overnight culture was inoculated into the wells of 96-well glass bottom microplate containing 100 μl of 10% LB media, after predetermined incubation time, suspension was removed from each well and rinsed with PBS buffer for three times then biofilm samples were stained with LIVE/DEAD BacLight Bacterial Viability Kits (cat. L7007, Invitrogen) following the instructions in the manual. All microscopic observations and image acquisitions were performed with Olympus IX71 equipped with detectors and filter sets for monitoring of SYTO-9 and propidium iodide (PI). Images were obtained using a 60× objective.

[3] = system: Acinetobacter baumannii ATCC 17978; test: Bacterial adherence assay on human bronchial epithelial NCI-H292 cells; type: cell-based
Experimental: Bacterial adherence assay was performed as described ([…]; herein incorporated by reference in its entirety). Human bronchial epithelial cell line NCI-H292 (ATCC CRL-1848; American Tissue Culture Collection, Rockville, Md., USA) were cultured in a petri dish at 37° C. in RPMI 1640 medium (Gibco BRL, Grand Island, N.Y., USA), supplemented with 25 mM HEPES, 2 mM L-glutamine, penicillin G 100,000 U/L, streptomycin 50 mg/L and 10% (v/v) of fetal bovine serum (Gibco BRL), in a humidified atmosphere containing 5% (v/v) of CO2.
When NCI-H292 cells covered about 80% of the bottom of petri dish, the medium was replaced with 0.25% trypsin-EDTA (1689649, MP Biomedicals, Solon Ohio) and the petri dish was incubated at 37° C. for 10 min. NCI-H292 Cells were collected by cell scraper and washed with fresh RPMI 1640 medium three time by centrifuging at 300×g for 3 min. Washed cells were adjusted to the concentration of 1×10^5 cells per ml with fresh RPMI 1640 and 2 ml of cell solution were transferred to each well of a 12-well plate, which contained a 13-mm-diameter plastic coverslip (Thermanox, Nunc, Rochester, N.Y., USA) in each well. The cells were incubated at 37° C. for about 3 days until cells covered about 90% of coverslip and were then washed with phosphate buffered saline (PBS) three times. Acinetobacter baumannii ATCC 17978 grown overnight in Luria Bertani (LB) medium were collected and washed three times with fresh RPMI 1640 medium by centrifuging at 6,000 rpm for 3 min. Bacterial cells were adjusted to the concentration of 1×10^8 CFU/mL (OD600=0.05) and mixed with reagents (400 μM of dATP, or 200 mU/ml of apyrase) as necessary. Each cell monolayer was infected with 1 mL of bacterial suspension and incubated for 60 min at 37° C. in a CO2 5% v/v atmosphere. For damaged cell assays, NCI-H292 cells (around 5%) in the central area of plastic coverslips were damaged by tip of a knife before the infection performed. […] The number of bacteria adhering to 100 cells was determined. […]

S. aureus = test: Biofilm formation, crystal violet staining in 96-well plates; type: cell-based; conditions: 400 μM dATP
Experimental: as §1

S. maltophilia = test: as above; type: cell-based; conditions: 400 μM dATP
Experimental: as §1

Acinetobacter baumannii = Acinetobacter baumannii adherence in mouse wound infection model; type: in vivo, C57BL/6 mice; conditions: burn wound sites treated with 400 mU/mL apyrase during inoculation
Experimental: Female pathogen-free C57BL/6 mice (Harlan, Indianapolis, Ind.), 12 weeks old, weighing approximately 20-23 grams were used in all experiments. Mice were housed in standard cages at the University Laboratory Animals Facility and were allowed to acclimate for 7 days after delivery prior to the experiment. The animals were kept on a 12 hour light cycle and were provided with rodent chow (LabDiet 5001, PMI Int'l., Richmond, Ind.) and water ad libitum throughout the study.
Pentobarbital (Nembutal, Ovation Pharmaceuticals, Inc., Deerfield, Ill., manufactured by Hospira, Lake Forest, Ill.) was administered intraperatonially (50 mg/kg IP) for anesthesia. During the study, all mice were singly housed and all received 0.1 mg/kg buprenorphine (Buprenex; Reckitt Benckiser Pharmaceuticals Inc., Richmond, Va.) subcutaneously (SQ) twice daily for post-burn pain control.
The skin over the lumbrosacral and back region was clipped using a 35-W model 5-55E electrical clipper (Oyster-Golden A-S, Head no. 80, blade size 40). Depilatory cream (Nair® lotion) was applied for about 1.5 minutes, then wiped off with a damp paper towel. Skin was rinsed under the faucet in lukewarm water and then blotted dry.
The first buprenorphine dose (67 ul/20 g, 83 ul/25 g mouse or 0.1 ug/g) was administered SQ under the skin of the upper back.
All 8 mice were burned. […]

Molecule | programmed cell death (Cytotox-glo) (Acinetobacter cultures; biofilm form) | programmed cell death (Cytotox-glo) (Acinetobacter cultures; planktonic form) | biofilm formation (E. coli) | extracellular DNA (eDNA) release (Acinetobacter [1]; biofilm cultures, more pronounced effect than in planktonic) | extracellular DNA (eDNA) release (Acinetobacter [1]; planktonic cultures) | biofilm biomass (Acinetobacter biofilms) | rates of attachment in initial biofilm formation (Acinetobacter [2]) | aggregate formation on human bronchial epithelial cells ([3]; 400 μM dATP in media) | increase of A. baumannii adherence to human bronchial epithelial cells ([3]; 400 μM dATP in media, 1 hour after incubation) | biofilm formation (S. aureus) | biofilm formation (S. maltophilia) | adherence during initial stages of biofilm formation, cell count per gram of skin tissue (Acinetobacter baumannii) | effect on increased bacterial adherence (dATP or damaged cells) ([3]; Apyrase 200 mU/ml)
Nc1ncnc2c1ncn2[C@H]1C[C@H](O)[C@@H](COP(=O)(O)OP(=O)(O)OP(=O)(O)O)O1 [dATP, deoxyadenosine triphosphate] | increased levels of programmed cell death | increased levels of programmed cell death | increased biofilm formation | Stimulation of extracellular DNA (eDNA) | Stimulation of extracellular DNA (eDNA) | stimulated biofilm biomass | accelerated rates of attachment | promoted aggregate formation | about 100 fold | increased biofilm formation | increased biofilm formation | – | –
apyrase | – | – | – | – | – | reduced biomass | – | – | – | – | – | decreased adherence | completely arrested
